These compounds were tested against T1, G1 APOL1 (Homo sapiens, UniProt O14791, I384M/S342G) (assay: Acute APOL1 Thallium Assay with inducible stable clones of HEK 293 cells). Conditions: HEK 293 T-Rex cells expressing G1 APOL1; read-out: Thallium Assay (IC50).
T1 construct: expressed in transfected cells
T1 sequence (O14791 28-398 S342G/I384M): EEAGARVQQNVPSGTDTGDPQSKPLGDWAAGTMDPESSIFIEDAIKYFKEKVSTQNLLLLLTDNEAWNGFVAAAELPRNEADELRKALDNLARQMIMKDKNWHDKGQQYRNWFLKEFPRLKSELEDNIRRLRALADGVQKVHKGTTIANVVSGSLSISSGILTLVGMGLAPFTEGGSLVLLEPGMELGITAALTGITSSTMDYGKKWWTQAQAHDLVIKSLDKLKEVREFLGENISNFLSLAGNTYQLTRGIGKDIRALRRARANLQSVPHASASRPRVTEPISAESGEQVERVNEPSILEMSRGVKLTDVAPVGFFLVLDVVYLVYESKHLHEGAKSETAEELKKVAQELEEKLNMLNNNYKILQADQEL
Type: cell-based
Procedure, shortened: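 Tetracycline-inducible HEK293 T-Rex clone G1 DC3.25 expressing G1 APOL1, plated at 26000 cells/well in Opti-MEM with tetracycline induction. APOL1 pore activity read on FLIPR as fluorescence increase from Tl+ influx into cells loaded with a Tl+-sensitive AM-ester dye.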

| SMILES | IC50 |
| --- | --- |
| CC(O)CNC(=O)[C@H]1C[C@H](c2c(-c3ccc(F)cc3)[nH]c3c(F)cc(F)cc32)C1 (some centres unmarked) [Compound 167] | 250 to 1000 nM |
| O=C([C@H]1C[C@H](c2c(-c3ccc(F)cc3)[nH]c3c(F)cc(F)cc32)C1)N1CCC[C@@H](O)C1 [Compound 149] | 250 to 1000 nM |
| O=C(NCc1cocn1)[C@H]1C[C@H](c2c(-c3ccc(F)cc3)[nH]c3c(F)cc(F)cc32)C1 [Compound 168] | 250 to 1000 nM |
| O=C1C[C@@H](NC(=O)[C@H]2C[C@H](c3c(-c4ccc(F)cc4)[nH]c4c(F)cc(F)cc43)C2)C(=O)N1 [Compound 166] | < 250 nM |
| CNC(=O)C(C)NC(=O)[C@H]1C[C@H](c2c(-c3ccc(F)cc3)[nH]c3c(F)cc(F)cc32)C1 (mixture of isomers) [Compound 9] | 250 to 1000 nM |
| O=C([C@H]1C[C@H](c2c(-c3ccc(F)cc3)[nH]c3c(F)cc(F)cc32)C1)N1C2CCC(C2)C1CO (some centres unmarked) [Compound 97] | > 1000 nM |
| O=C(N[C@H](CO)C(F)(F)F)[C@H]1C[C@H](c2c(-c3ccc(F)cc3)[nH]c3c(F)cc(F)cc32)C1 [Compound 164] | 250 to 1000 nM |
| O=C([C@H]1C[C@H](c2c(-c3ccc(F)cc3)[nH]c3c(F)cc(F)cc32)C1)N(CCO)c1cnccn1 [Compound 132] | > 1000 nM |
| O=C1C[C@H](NC(=O)[C@H]2C[C@H](c3c(-c4ccc(F)cc4)[nH]c4c(F)cc(F)cc43)C2)C(=O)N1 [Compound 165] | < 250 nM |
| CC(C)(NC(=O)[C@H]1C[C@H](c2c(-c3ccc(F)cc3)[nH]c3c(F)cc(F)cc32)C1)C(N)=O [Compound 11] | 250 to 1000 nM |
| O=C([C@H]1C[C@H](c2c(-c3ccc(F)cc3)[nH]c3c(F)cc(F)cc32)C1)N1CCN(CCO)CC1 [Compound 126] | > 1000 nM |
| CC1(C)CN(C(=O)[C@H]2C[C@H](c3c(-c4ccc(F)cc4)[nH]c4c(F)cc(F)cc43)C2)CCC1O (some centres unmarked) [Compound 114] | > 1000 nM |
| NC(=O)[C@H]1CCCN1C(=O)[C@H]1C[C@H](c2c(-c3ccc(F)cc3)[nH]c3c(F)cc(F)cc32)C1 [Compound 153] | 250 to 1000 nM |
| O=C(NC1CC(O)C1)[C@H]1C[C@H](c2c(-c3ccc(F)cc3)[nH]c3c(F)cc(F)cc32)C1 (some centres unmarked) [Compound 5] | 250 to 1000 nM |
| O=C([C@H]1C[C@H](c2c(-c3ccc(F)cc3)[nH]c3c(F)cc(F)cc32)C1)N1CC(n2cccn2)C1 [Compound 96] | > 1000 nM |
| O=C([C@H]1C[C@H](c2c(-c3ccc(F)cc3)[nH]c3c(F)cc(F)cc32)C1)N1CCCC(O)C1 (some centres unmarked) [Compound 150] | > 1000 nM |
| C[C@@H](O)[C@@H](CO)NC(=O)[C@H]1C[C@H](c2c(-c3ccc(F)cc3)[nH]c3c(F)cc(F)cc32)C1 [Compound 160] | 250 to 1000 nM |
| C[C@@H](O)[C@H](CO)NC(=O)[C@H]1C[C@H](c2c(-c3ccc(F)cc3)[nH]c3c(F)cc(F)cc32)C1 [Compound 155] | > 1000 nM |
| O=C([C@H]1C[C@H](c2c(-c3ccc(F)cc3)[nH]c3c(F)cc(F)cc32)C1)N1CCN[C@H](CO)C1 [Compound 161] | > 1000 nM |
| O=C([C@H]1C[C@H](c2c(-c3ccc(F)cc3)[nH]c3c(F)cc(F)cc32)C1)N1CCCC(CO)C1 (some centres unmarked) [Compound 147] | > 1000 nM |
| O=C([C@H]1C[C@H](c2c(-c3ccc(F)cc3)[nH]c3c(F)cc(F)cc32)C1)N1CC(O)C(N2CCOCC2)C1 (some centres unmarked) [Compound 106] | > 1000 nM |
| O=C([C@H]1C[C@H](c2c(-c3ccc(F)cc3)[nH]c3c(F)cc(F)cc32)C1)N1CCOC(CO)C1 (some centres unmarked) [Compound 148] | > 1000 nM |
| O=C(NCCCO)[C@H]1C[C@H](c2c(-c3ccc(F)cc3)[nH]c3c(F)cc(F)cc32)C1 [Compound 104] | 250 to 1000 nM |
| CC(O)C1CCCN(C(=O)[C@H]2C[C@H](c3c(-c4ccc(F)cc4)[nH]c4c(F)cc(F)cc43)C2)C1 (some centres unmarked) [Compound 131] | > 1000 nM |

| SMILES | IC50 |
| --- | --- |
| O=C([C@H]1C[C@H](c2c(-c3ccc(F)cc3)[nH]c3c(F)cc(F)cc32)C1)N1CCCCC1CO (some centres unmarked) [Compound 145] | > 1000 nM |
| CC1(C)CN(C(=O)[C@H]2C[C@H](c3c(-c4ccc(F)cc4)[nH]c4c(F)cc(F)cc43)C2)CCN1C(=O)[C@H]1C[C@@](C)(O)C1 [Compound 130] | > 1000 nM |
| C[C@H](CO)N(C)C(=O)[C@H]1C[C@H](c2c(-c3ccc(F)cc3)[nH]c3c(F)cc(F)cc32)C1 [Compound 142] | 250 to 1000 nM |
| O=C1CC[C@H](NC(=O)[C@H]2C[C@H](c3c(-c4ccc(F)cc4)[nH]c4c(F)cc(F)cc43)C2)C1 [Compound 139] | 250 to 1000 nM |
| NC(=O)[C@H]1CCN(C(=O)[C@H]2C[C@H](c3c(-c4ccc(F)cc4)[nH]c4c(F)cc(F)cc43)C2)C1 [Compound 154] | > 1000 nM |
| O=C([C@H]1C[C@H](c2c(-c3ccc(F)cc3)[nH]c3c(F)cc(F)cc32)C1)N1CCCC1CCO (some centres unmarked) [Compound 101] | > 1000 nM |
| O=C(NC1(CO)CCC1)[C@H]1C[C@H](c2c(-c3ccc(F)cc3)[nH]c3c(F)cc(F)cc32)C1 [Compound 6] | < 250 nM |
| O=C([C@H]1C[C@H](c2c(-c3ccc(F)cc3)[nH]c3c(F)cc(F)cc32)C1)N1CCC(CO)(CO)CC1 [Compound 108] | > 1000 nM |
| O=C1NCC[C@@H]1NC(=O)[C@H]1C[C@H](c2c(-c3ccc(F)cc3)[nH]c3c(F)cc(F)cc32)C1 [Compound 162] | 250 to 1000 nM |
| O=C([C@H]1C[C@H](c2c(-c3ccc(F)cc3)[nH]c3c(F)cc(F)cc32)C1)N1CC(OCC2CCCO2)C1 (some centres unmarked) [Compound 136] | > 1000 nM |
| O=C([C@H]1C[C@H](c2c(-c3ccc(F)cc3)[nH]c3c(F)cc(F)cc32)C1)N1CCOCC1CCO (some centres unmarked) [Compound 113] | > 1000 nM |
| NC(=O)C1CCN(C(=O)[C@H]2C[C@H](c3c(-c4ccc(F)cc4)[nH]c4c(F)cc(F)cc43)C2)CC1 [Compound 133] | > 1000 nM |
| O=C1CC[C@@H](NC(=O)[C@H]2C[C@H](c3c(-c4ccc(F)cc4)[nH]c4c(F)cc(F)cc43)C2)C1 [Compound 157] | > 1000 nM |
| O=C([C@H]1C[C@H](c2c(-c3ccc(F)cc3)[nH]c3c(F)cc(F)cc32)C1)N1CCCC(CCO)C1 (some centres unmarked) [Compound 128] | > 1000 nM |
| CC(C)[C@@H](CO)NC(=O)[C@H]1C[C@H](c2c(-c3ccc(F)cc3)[nH]c3c(F)cc(F)cc32)C1 [Compound 141] | > 1000 nM |
| O=C([C@H]1C[C@H](c2c(-c3ccc(F)cc3)[nH]c3c(F)cc(F)cc32)C1)N1CC[C@H](CO)[C@H](O)C1 [Compound 100] | > 1000 nM |
| O=C([C@H]1C[C@H](c2c(-c3ccc(F)cc3)[nH]c3c(F)cc(F)cc32)C1)N1CC[C@H](CO)C1 [Compound 140] | > 1000 nM |
| O=C([C@H]1C[C@H](c2c(-c3ccc(F)cc3)[nH]c3c(F)cc(F)cc32)C1)N(CCOCCO)C1CCC1 [Compound 121] | > 1000 nM |
| O=C([C@H]1C[C@H](c2c(-c3ccc(F)cc3)[nH]c3c(F)cc(F)cc32)C1)N1CCOC(O)C1 (some centres unmarked) [Compound 115] | 250 to 1000 nM |
| O=C(NC(CO)CO)[C@H]1C[C@H](c2c(-c3ccc(F)cc3)[nH]c3c(F)cc(F)cc32)C1 [Compound 8] | < 250 nM |
| O=C([C@H]1C[C@H](c2c(-c3ccc(F)cc3)[nH]c3c(F)cc(F)cc32)C1)N(CCO)CCCO [Compound 117] | > 1000 nM |
| O=C([C@H]1C[C@H](c2c(-c3ccc(F)cc3)[nH]c3c(F)cc(F)cc32)C1)N1CCO[C@H](CO)C1 [Compound 118] | > 1000 nM |
| CN(CC(O)CO)C(=O)[C@H]1C[C@H](c2c(-c3ccc(F)cc3)[nH]c3c(F)cc(F)cc32)C1 (some centres unmarked) [Compound 158] | > 1000 nM |

Source: US12116343B2, “Inhibitors of APOL1 and methods of using same” (Vertex Pharmaceuticals Incorporated, priority 2020, dated 2024)
